Test results: patent publication US6403831B1, “Substituted benzylidene indenyl formamides, acetamides and propionamides” (Cell Pathways, Inc., priority 1996, dated 2002)

Test system: human colon carcinoma cell line, SW-480
Assay: Growth inhibition, Sulforhodamine B (SRB) protein binding assay
Assay type: cell-based
Settings: SW-480 cell line, six days continuous exposure
Experimental: These compounds were assayed for their growth inhibitory activity on the human colon carcinoma cell line, SW-480 obtained from ATCC (Rockville, Md.), to ascertain the degree of growth inhibition. Growth inhibition of this cell line is indicative of a benefit on precancerous lesions and neoplasms. The cell line and growth assay employed for these experiments are well characterized, and are used to evaluate the anti-neoplastic properties of NSAIDs. The assay is used by the United States National Cancer Institute in its screening program for new anti-cancer drugs.
Drug stock solutions were made in 100% DMSO then diluted with RPMI media for cell culture testing. All drug solutions were prepared fresh on the day of testing. The cultured cells were obtained at passage #99 and grown in RPMI media supplemented with 5% fetal calf serum, and 2 mM glutamine, 100 U/ml penicillin, 100 U/ml streptomycin, and 0.25 μg/ml amphotericin. The cultures were maintained in a humidified atmosphere of 95% air and 5% CO2 at 37° C. The cultures were passaged at preconfluent densities using a solution of 0.05% trypsin and 0.53 mM EDTA. Cells were plated at 1000 cells/well for 96 well flat-bottom microtiter plates.
Tumor cell growth inhibition was assessed using the Sulforhodamine B (SRB) protein binding assay. In this assay, tumor cells were plated in 96-well plates and treated with drug-containing media for six days (continuous exposure). For each plate, 6 wells were designated as no treatment controls, six wells as vehicle (0.1% DMSO) controls, and the remaining wells for drug dilutions with three wells per drug concentration. At the end of the exposure period, the cells were fixed and stained with sulforhodamine B, a protein binding dye. The dye was then solubilized, and the optical density of the resulting solution was determined on a 96-well plate reader. The mean dye intensity of the treated wells was then divided by the mean dye intensity in the control wells (6 wells of each) to determine the effect of the drug on the cells. Dye intensity is proportional to the number of cells or amount of protein per well. The resultant “percent inhibition” value then represents the degree of growth inhibition caused by the drug.
For each experiment, an IC50 value was determined and used for comparative purposes. This value is equivalent to the concentration of drug needed to inhibit tumor cell growth by 50%. IC50 values were obtained graphically by connecting the mean values for each drug concentration tested. Each experiment included at least three wells per drug concentration. Concentration was plotted on a log scale on the X-axis.

| Structure (SMILES) | IC50 |
| --- | --- |
| COc1cc(OC)c(/C=C2/C(C)=C(CC(=O)NCc3ccccc3)c3cc(F)ccc32)c(OC)c1 [Example 55, (Z)-5-fluoro-2-methyl-1-(2,4,6-trimethoxybenzylidene)-3-(N-benzyl)-indenylacetamide] | 0.5 µM |
| COc1cc(/C=C2/C(C)=C(CC(=O)Nc3ccc(Br)cc3)c3cc(F)ccc32)cc(OC)c1OC [Example 23, (Z)-5-fluoro-2-methyl-1-(3,4,5-trimethoxybenzylidene)-3-(N-4-bromophenyl)-indenylacetamide] | 8 µM |

Molecular target: T1, COX I (Ovis aries, UniProt P05979)
T1 construct: The COX was purified form ram seminal vesicles; from tissue; host or cells: ram seminal vesicles
T1 sequence (P05979 25-600): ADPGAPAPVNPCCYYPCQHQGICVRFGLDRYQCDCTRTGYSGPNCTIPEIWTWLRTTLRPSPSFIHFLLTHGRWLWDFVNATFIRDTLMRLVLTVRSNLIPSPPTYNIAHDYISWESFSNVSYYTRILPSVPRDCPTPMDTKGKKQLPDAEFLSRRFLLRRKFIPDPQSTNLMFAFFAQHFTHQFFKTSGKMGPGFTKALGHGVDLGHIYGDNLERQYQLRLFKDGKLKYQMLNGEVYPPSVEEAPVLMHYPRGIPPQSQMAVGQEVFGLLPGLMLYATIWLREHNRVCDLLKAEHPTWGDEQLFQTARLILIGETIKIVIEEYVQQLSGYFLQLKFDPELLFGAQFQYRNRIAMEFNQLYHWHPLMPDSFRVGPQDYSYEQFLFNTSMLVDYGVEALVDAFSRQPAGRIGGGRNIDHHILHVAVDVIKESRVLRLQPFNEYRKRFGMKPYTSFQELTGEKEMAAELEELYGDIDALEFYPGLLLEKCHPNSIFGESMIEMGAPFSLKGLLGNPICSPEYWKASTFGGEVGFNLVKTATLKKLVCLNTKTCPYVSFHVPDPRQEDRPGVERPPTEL
Assay: Cyclooxygenase (COX) inhibition, purified COX
Assay type: biochemical
Settings: 100 μM test compound; purified COX from ram seminal vesicles, arachidonic acid 100 μM
Experimental: Compounds of this invention, as well as a positive control, sulindac sulfide were to determine whether they inhibited the production of cyclooxygenase (see Table 5 below).
COX catalyzes the formation of prostaglandins and thromboxane by the oxidative metabolism of arachidonic acid. The compounds of this invention were evaluated for inhibitory effects on purified COX. The COX was purified form ram seminal vesicles, as described by Boopathy, R. and Balasubramanian, J. 239:371-377, 1988. COX activity was assayed as described by Evans, A. T., et al., “Actions of cannabis constituents on enzymes of arachidonate metabolism anti-flammatory potential,” Biochem. Pharmacol., 36:2035-2037, 1987. Briefly, purified COX was incubated with arachidonic acid (100 μM) for 2.0 min at 37° C. in the presence or absence of test compounds. The assay was terminated buy the addition of TCA, and COX activity was determined by absorbance at 530 nm.

| Structure (SMILES) | COX I % Inhibition (100 μM) |
| --- | --- |
| COc1cc(/C=C2/C(C)=C(CC(=O)NCc3c(F)cccc3F)c3cc(F)ccc32)cc(OC)c1OC [Example 10, (Z)-5-fluoro-2-methyl-1-(3,4,5-trimethoxybenzylidene)-3-(N-2,6-difluorobenzyl)-indenylacetamide] | <25% |
| COc1cc(/C=C2/C(C)=C(CC(=O)N(C3CCCCC3)C3CCCCC3)c3cc(F)ccc32)cc(OC)c1OC [Example 26, (Z)-5-fluoro-2-methyl-1-(3,4,5-trimethoxybenzylidene)-3-(N,N-dicyc1ohexyl)-indenylacetamide] | 28.1% |
| CCN(CC)C(=O)CC1=C(C)/C(=C/c2cc(OC)c(OC)c(OC)c2)c2ccc(F)cc21 [Example 24, (Z)-5-fluoro-2-methyl-1-(3,4,5 trimethoxybenzylidene)-3-(N,N-diethyl)-indenylacetamide] | <25% |
| COc1cc(/C=C2/C(C)=C(CC(=O)NCc3ccco3)c3cc(F)ccc32)cc(OC)c1OC [Example 29, (Z)-5-fluoro-2-methyl-1-(3,4,5-trimethoxybenzylidene)-3-(N-furfuryl)-indenylacetamide] | <25% |
| COc1cc(OC)c(/C=C2/C(C)=C(CC(=O)NCc3ccccc3)c3cc(F)ccc32)c(OC)c1 [Example 55, (Z)-5-fluoro-2-methyl-1-(2,4,6-trimethoxybenzylidene)-3-(N-benzyl)-indenylacetamide] | <25% |
| COc1cc(/C=C2/C(C)=C(CC(=O)Nc3ccc(Br)cc3)c3cc(F)ccc32)cc(OC)c1OC [Example 23, (Z)-5-fluoro-2-methyl-1-(3,4,5-trimethoxybenzylidene)-3-(N-4-bromophenyl)-indenylacetamide] | <25% |
| COc1cc(/C=C2/C(C)=C(CC(=O)NCc3cc(F)cc(C(F)(F)F)c3)c3cc(F)ccc32)cc(OC)c1OC [Example 11, (Z)-5-fluoro-2-methyl-1-(3,4,5-trimethoxybenzylidene)-3-(N-3-fluoro-5-(trifluoromethyl)-benzyl)-indenylacetamide] | <25% |
| COc1cc(/C=C2/C(C)=C(CC(=O)NCc3cccnc3)c3cc(F)ccc32)cc(OC)c1OC [Example 49, (Z)-5 fluoro-2-methyl-1-(3,4,5 trimetboxybenzylidene)-3-(N-3-pyridinyl)-idenylacetamide] | 25% |
| COc1cc(/C=C2/C(C)=C(CC(=O)NCc3ccc(Cl)c(Cl)c3)c3cc(F)ccc32)cc(OC)c1OC [Example 5, (Z)-5-fluoro-2-methyl-1-(3,4,5-trimethoxybenzylidene)-3-(N-3,4-dichlorobenzyl)-indenylacetamide] | <25% |
| COc1cccc(CNC(=O)CC2=C(C)/C(=C/c3cc(OC)c(OC)c(OC)c3)c3ccc(F)cc32)c1OC [Example 18, (Z)-5 fluoro-2-methyl-1-(3,4,5-trimethoxybenzylidene)-3-(N-2,3-dimethoxybenzyl)-indenylacetamide] | <25% |
| COc1ccc(CNC(=O)CC2=C(C)/C(=C/c3cc(OC)c(OC)c(OC)c3)c3ccc(F)cc32)cc1 [Example 14, (Z)-5-fluoro-2-methyl-1-(3,4,5-trimethoxybenzylidene)-3-(N-4-methoxybenzyl)-indenylacetamide] | <25% |
| COc1cc(/C=C2/C(C)=C(CC(=O)NCc3cccc(F)c3)c3cc(F)ccc32)cc(OC)c1OC [Example 7, (Z)-5-fluoro-2-methyl-1-(3,4,5-trimethoxybenzylidene)-3-(N-3-fluorobenzyl)-indenylacetamide] | <25% |
| COc1cc(/C=C2/C(C)=C(CC(=O)NCc3ccc(F)c(F)c3)c3cc(F)ccc32)cc(OC)c1OC [Example 9, (Z)-5-fluoro-2-methyl-1-(3,4,5-trimethoxybenzylidene)-3-(N-3,4-difluorobenzyl)-indenylacetamide] | <25% |
| COc1cc(/C=C2/C(C)=C(CC(=O)NCc3cccc(I)c3)c3cc(F)ccc32)cc(OC)c1OC [Example 2, (Z)-5-fluoro-2-methyl-1-(3,4,5-trimethoxybenzylidene)-3-(N-3-iodobenzyl)-indenylacetamide] | <25% |
| COc1cc(/C=C2\C(C)=C(CC(=O)NCc3ccccc3)c3cc(F)ccc32)cc(OC)c1OC [Example 52, (E)-5-Fluoro-2-methyl-1-(3,4,5-trimethoxybenzylidene)-3-(N-benzyl)-indenylacetamide] | <25% |
| COc1cc(/C=C2/C(C)=C(CC(=O)NCc3cccc(Cl)c3)c3cc(F)ccc32)cc(OC)c1OC [Example 3] | <35% |
| COc1cc(CNC(=O)CC2=C(C)/C(=C/c3cc(OC)c(OC)c(OC)c3)c3ccc(F)cc32)cc(OC)c1 [Example 16, (Z)-5-fluoro-2-methyl-1-(3,4,5-trimethoxybenzylidene)-3-(N-3,5-dimethoxybenzyl)-indenylacetamide] | <25% |
| COc1cc(/C=C2/C(C)=C(CC(=O)NCc3ccc(F)cc3F)c3cc(F)ccc32)cc(OC)c1OC [Example 6, (Z)-5-fluoro-2-methyl-1-(3,4,5-trimethoxybenzylidene)-3-(N-2,4-difluorobenzyl)-indenylacetamide] | <25% |
| COc1cc(/C=C2/C(C)=C(CC(=O)NCc3ccc(S(N)(=O)=O)cc3)c3cc(F)ccc32)cc(OC)c1OC [Example 20, (Z)-5-fluoro-2-methyl-1-(3,4,5-trimethoxybenzylidene)-3-(N-4-sulfonamidobenzyl)-indenylacetamide] | 36.5% |
| COc1cc(/C=C2/C(C)=C(CC(=O)NC(C)(C)C)c3cc(F)ccc32)cc(OC)c1OC [Example 25, (Z)-5-fluoro-2-methyl-1-(3,4,5-trimethoxybenzylidene)-3-(N-tertbutyl)-indenylacetamide] | 25% |
| COc1ccc(CNC(=O)CC2=C(C)/C(=C/c3cc(OC)c(OC)c(OC)c3)c3ccc(F)cc32)cc1OC [Example 17, (Z)-5-fluoro-2-methyl-1-(3,4,5-trimethoxybenzylidene)-3-(N-3,4-dimethoxybenzyl)-indenylacetamide] | <25% |
| COc1cc(/C=C2/C(C)=C(CC(=O)NCc3ccc(N(C)C)cc3)c3cc(F)ccc32)cc(OC)c1OC [Example 21, (Z)-5-fluoro-2-methyl-1-(3,4,5-trimethoxybenzylidene)-3-(N-4-(dimethylamino)-benzyl)-indenylacetamide] | 36.5% |
| COc1cc(/C=C2/C(C)=C(CC(=O)NCC3CC3)c3cc(F)ccc32)cc(OC)c1OC [Example 30, (Z)-5-fluoro-2-methyl-1-(3,4,5-trimethoxybenzylidene)-3-(N-cyclopropylmethyl)-indenylacetamide] | <25% |
| COc1cc(/C=C2/C(C)=C(CC(=O)NCc3ccncc3)c3cc(F)ccc32)cc(OC)c1OC [Example 50] | 29.2% |
